From paper PMC6967409 (Frontiers in Chemistry, 2020)
Values joined by “and” are separate entries in the source; they are usually repeats but may differ in a detail not shown here. Equal entries are not always repeated. Where two headings read alike, the source gives them in different places.

Columns and labels:
P. falciparum Dd2 = experiment: Metabolic (parasite LDH) assay, asexual ring stage parasites, 48 h; type: cell-based; conditions: Plasmodium falciparum, pLDH, Dd2 CQ, pyrimethamine resistant
Procedure: (§1) Working solutions of the derivatives were prepared from a 10 mM stock solution in 100% DMSO in supplemented RPMI 1640 media containing Albumax II with a final DMSO concentration of <0.1%, previously determined as being non-toxic to intraerythrocytic asexual parasites and gametocytes. Dose responses were assayed using a two-fold serial drug dilution on in vitro >95% ring stage intraerythrocytic P. falciparum parasites at 37°C under 90% N2, 5% CO2, and 5% O2 atmospheric conditions, detecting both parasite lactate dehydrogenase (pLDH) activity as a metabolic marker following a 48 h drug exposure (1.5–2% parasitemia and 2% hematocrit; Makler et al., [1993]) and SYBR Green I fluorescence as proliferative marker following a 96 h drug exposure (1% parasitemia and 1% hematocrit). […] Data analysis was performed using GraphPad Prism 7.

P. falciparum NF54 [1] = experiment: as above; type: cell-based; conditions: Plasmodium falciparum, pLDH, CQ-sensitive NF54
Procedure: (§2) P. falciparum parasites (NF54, K1, and W2) were cultured in vitro in human erythrocytes (A^+ or O^+) under 90% N2, 5% CO2, and 5% O2 atmospheric conditions with supplemented RPMI 1640 media (Sigma Aldrich) containing Albumax II, as previously described (Verlinden et al., [2011]). This study was carried out according the guidelines set out by the Faculty of Health Sciences Ethical Committee, Ethical Clearance no. EC-120821/077. The protocol was approved by the Faculty of Health sciences ethical committee at the University of Pretoria. All subjects gave written informed consent in accordance with the Declaration of Helsinki. Parasite proliferation was monitored microscopically using Giemsa stained smears. Synchronized ring stage parasites (>95%) were obtained using a 5% D-sorbitol (Sigma Aldrich) treatment. […] Gametocyte cultures were kept stationary under 90% N2, 5% CO2, and 5% O2 atmospheric conditions at 37°C and treated with 50 mM N-acetyl-glucosamine (NAG) to eliminate residual invasion of asexual parasites.
as §1

Cytotoxicity, MTT assay = type: cell-based; conditions: Chinese hamster, CHO cells
Procedure: (§3) Cytotoxicity (EC50) was determined against Chinese hamster ovarian (CHO) using a 3-(4,5-dimethylthiazol-2-yl)-2,5-diphenyltetrazolium bromide (MTT) assay and hepatocellular carcinoma cells (HepG2) using the Cytoselect LDH cytotoxicity assay kit (Cell Biolabs).

P. falciparum NF54 [2] = experiment: Proliferative (SYBR Green I) assay, asexual parasites, 96 h; type: cell-based; conditions: Plasmodium falciparum, ±SEM
Procedure: as §2, §1

P. falciparum K1 = experiment: as above; type: cell-based; conditions: Plasmodium falciparum, ±SEM
Procedure: as §2, §1

P. falciparum W2 = experiment: as above; type: cell-based; conditions: Plasmodium falciparum, ±SEM
Procedure: as §2, §1

[3] = Cytotoxicity, Cytoselect LDH cytotoxicity assay kit; type: cell-based; conditions: human, HepG2 cells
Procedure: as §3

[4] = test system: P. falciparum NF54 late stage gametocytes (>90% stage IV and V); experiment: Gametocytocidal luciferase reporter assay, late stage, 72 h; type: cell-based, Plasmodium falciparum; conditions: Plasmodium falciparum, NF54, 72 h, read-out: Late Stage (LG, Luc 72 h) IC50, >90% stage IV and V gametocytes, ±SEM
Procedure: as §2
(§4) Gametocytocidal activity was determined using the luciferase reporter line (Reader et al., [2015]) to derive dose responses with two-fold serial drug dilutions for 48 h against early stage gametocytes (day 5 post-induction population, >90% stage I–III) and 10-fold serial drug dilutions for 72 h against late stage gametocytes (day 10 post-induction population, >90% late stage IV–V) (2% gametocytemia, 2% hematocrit), at 37°C under 90% N2, 5% CO2, and 5% O2 atmospheric conditions.

[5] = test system: P. falciparum NF54 early stage gametocytes (>90% stage I–III); experiment: Gametocytocidal luciferase reporter assay, early stage, 48 h; type: cell-based; conditions: Plasmodium falciparum, NF54, 48 h, read-out: Early Stage (EG, Luc 48 h) IC50
Procedure: as §2, §4

[6] = test system: asexual P. falciparum NF54, Dd2, K1, W2; experiment: Asexual P. falciparum, metabolic (pLDH) and proliferative (SYBR Green I) platforms; type: cell-based; conditions: Plasmodium falciparum; drug-sensitive and -resistant parasites, both assay platforms; read-out: IC50, asexual P. falciparum metabolic activity and proliferation
Procedure: Data analysis was performed using GraphPad Prism 7.
The in vitro activities of the new derivatives were determined against drug sensitive NF54 and multi-drug resistant Dd2, K1, and W2 intraerythrocytic asexual P. falciparum malaria parasite strains using both a metabolic (parasite LDH) and a proliferative (SYBR Green I fluorescence) assay readout (Table 1).

HepG2 cells = experiment: HepG2 cytotoxicity bioluminescence assay (CellTiterGlo, ATP); type: cell-based, human; conditions: two biological replicates listed in one cell
Procedure: (§5) Briefly, HepG2-CD81 cells were seeded into 1,536 well plates containing 50 nL of test and control compounds diluted into DMSO. […] Next, 2 μL of luciferin reagent (Promega BrightGlo) was added to each well and luciferase activity was detected using a Perkin Elmer Envision plate reader. […] In parallel, plates were processed without sporozoites for HepG2 toxicity measurements.
(§6) In continuation of the transmission blocking theme, it is important to establish activities against liver stage parasites. […] This assay uses ultra-high-throughput screening methods optimized for a 1536-well format and a HepG2 human hepatoma cell line. […] To establish selectivity of the compounds for the parasite in the liver stage of infection, cytotoxicity was determined by measuring bioluminescence from the reaction between free ATP of compound-treated, uninfected hepatocytes and a luciferase reporter system.

[7] = as above; type: cell-based, human; conditions: human, uninfected HepG2-CD81 cells
Procedure: as §5, §6

[8] = test system: P. berghei ANKA GFP-Luc-SMcon sporozoites; experiment: P. berghei-luciferase liver stage bioluminescence assay (causal prophylactic mode) in HepG2-CD81 cells; type: cell-based, Plasmodium berghei
Procedure: as §5, §6

[9] = >90% stage I–III gametocytes, ±SEM

For `C[C@H]1[C@H](N2CCN(S(=O)(=O)c3ccc(F)cc3)CC2)O[C@@H]2O[C@@]3(C)CC[C@H]4[C@H](C)CC[C@@H]1[C@@]24OO3` [Compound 19], the IC50 (P. falciparum Dd2) was 9.8 ± 0.4 nM, the IC50 (P. falciparum NF54 [1]) was 1.65 ± 0.04 nM and the EC50 (Cytotoxicity, MTT assay) was over 196000 nM. The IC50 (P. falciparum NF54 [2]) was 3.4 ± 0.4 nM, the IC50 (P. falciparum K1) was 4.2 ± 0.1 nM and the IC50 (P. falciparum W2) was 4.8 ± 0.5 nM. For the same molecule, the EC50 [3] was 558 nM, the IC50 [4] was 0.7 ± 0.5 nM and the IC50 [5, 9] was 12.1 ± 4.5 nM.
Molecule `CCCCCCNC(=O)N1CCN([C@@H]2O[C@@H]3O[C@@]4(C)CC[C@H]5[C@H](C)CC[C@@H]([C@H]2C)[C@@]35OO4)CC1` [Compound 20] has an IC50 [6] of 50 to 100 nM.
With `CCCCCCCCCCCCCCCCNC(=O)N1CCN([C@@H]2O[C@@H]3O[C@@]4(C)CC[C@H]5[C@H](C)CC[C@@H]([C@H]2C)[C@@]35OO4)CC1` [Compound 21] the IC50 [6] was 50 to 100 nM.
`C[C@H]1[C@H](N2CCN(C(=O)Nc3ccc(C(C)(C)C)cc3)CC2)O[C@@H]2O[C@@]3(C)CC[C@H]4[C@H](C)CC[C@@H]1[C@@]24OO3` [Compound 22] gave an IC50 (P. falciparum Dd2) of 24.7 ± 2.79 nM, an IC50 (P. falciparum NF54 [1]) of 2.11 ± 0.53 nM and an EC50 (Cytotoxicity, MTT assay) of 2920 nM. It also gave an IC50 (P. falciparum NF54 [2]) of 1.87 ± 0.12 nM, an IC50 (P. falciparum K1) of 1.12 ± 0.08 nM and an IC50 (P. falciparum W2) of 1.48 ± 0.14 nM. It also gave an EC50 [3] of 616 nM, an IC50 [4] of 17.7 ± 15.1 nM and an IC50 [5] of 45.9 ± 9.9 nM.
Work on `CCCCCCCCCCCCCCCC(=O)N1CCN([C@@H]2O[C@@H]3O[C@@]4(C)CC[C@H]5[C@H](C)CC[C@@H]([C@H]2C)[C@@]35OO4)CC1` [Compound 26] yielded an IC50 [6] of 50 to 100 nM.
For `C[C@H]1[C@H](NS(=O)(=O)N2CCN(c3ccccn3)CC2)O[C@@H]2O[C@@]3(C)CC[C@H]4[C@H](C)CC[C@@H]1[C@@]24OO3` [Compound 29], the IC50 (P. falciparum Dd2) was 6.4 ± 1.4 nM, the IC50 (P. falciparum NF54 [1]) was 1.68 ± 0.18 nM and the EC50 (Cytotoxicity, MTT assay) was over 197000 nM. It also gave an IC50 (P. falciparum NF54 [2]) of 4.3 ± 0.4 nM, an IC50 (P. falciparum K1) of 4.9 ± 0.9 nM and an IC50 (P. falciparum W2) of 3.3 ± 0.7 nM. For the same molecule, the EC50 [3] was 173 nM, the IC50 [4] was 0.04 ± 0.03 nM and the IC50 [5, 9] was 24.7 ± 4.9 nM.
For `C[C@H]1[C@H](NS(=O)(=O)N2CCN(c3ccc(C(F)(F)F)cn3)CC2)O[C@@H]2O[C@@]3(C)CC[C@H]4[C@H](C)CC[C@@H]1[C@@]24OO3` [Compound 30], the IC50 (P. falciparum Dd2) was 9.64 ± 0.6 nM, the IC50 (P. falciparum NF54 [1]) was 1.8 ± 0.6 nM and the EC50 (Cytotoxicity, MTT assay) was 34300 nM. The IC50 (P. falciparum NF54 [2]) was 3.3 ± 0.3 nM, the IC50 (P. falciparum K1) was 4.3 ± 1.3 nM and the IC50 (P. falciparum W2) was 3 ± 1 nM. The EC50 [3] was 311 nM, the IC50 [4] was 4 ± 3.8 nM and the IC50 [5, 9] was 19.3 ± 6.2 nM.
For `COc1ccc(C[C@H](N)C(=O)N[C@H]2[C@@H](O)[C@H](n3cnc4c(N(C)C)ncnc43)O[C@@H]2CO)cc1` [Puromycin], the “HepG2 Cytotoxicity Bioluminescence Assay: Maximum measured (%)” value (HepG2 cells) was 102.0% and 105.0%, the IC50 (HepG2 cells) was 120 nM and the IC50 at 72 h ([7]; two biological replicates listed in one cell) was 114 nM. For the same molecule, the EC50 at 72 h ([7]; uninfected HepG2, ATP bioluminescence) was 117 nM, the Emax ([8]; Plasmodium berghei, 48 h, two biological replicates listed in one cell, read-out: P.berghei-Luciferase Liver Stage Bioluminescence Assay: Maximum measured (%)) was 107% and the IC50 ([8]; Plasmodium berghei, HepG2, 48 h, liver stage, HepG2 host cells, luciferase after 48 h, ±SD, read-out: P. berghei sporozoites IC50) was 22.7 ± 4.53 nM. It also gave an IC50 ([8]; Plasmodium berghei, two biological replicates listed in one cell, read-out: P.berghei-Luciferase Liver Stage Bioluminescence Assay: IC50) of 19.5 nM, an inhibition at 5 µM ([8]; Plasmodium berghei, Conc. 5 μM, read-out: P. berghei sporozoites Maximum inhibition %) of 110 ± 4.24% and an IC50 ([8]; two biological replicates listed in one cell, read-out: P.berghei-Luciferase Liver Stage Bioluminescence Assay: IC50) of 25.9 nM.
